# Literature values in US20030236306A1, “Stabilized formulations of alpha adrenergic receptor antagonists and the uses thereof” (priority 2002, published 2003).
# Where a name gives a salt, the structure may show the parent alone.
# Test system: local anesthetic containing an alpha adrenergic receptor agonist
# Conditions: solution of 0.05 mg/ml; cited from earlier work
compound,measurement,value
"Cc1ccc(N(CC2=NCCN2)c2cccc(O)c2)cc1 [Phentolamine Mesylate, phentolamine mesylate]",reversal of local anesthetic effect,can rapidly reverse the effect of a local anesthetic
